Data taken from patent US20080009415A1, “Fungicidal Mixtures” (BASF Aktiengesellschaft, priority 2004, published 2008).

System: Alternaria solani
Test: Activity against early blight of tomato caused by Alternaria solani
Assay type: in vivo
Conditions: single active compound, leaves sprayed to runoff, infected next day, assessed after 5 days, efficacy in % of untreated control (Abbot)
Procedure: The active compounds were prepared separately or jointly as a stock solution with 25 mg of active compound which was made up to 10 ml using a mixture of acetone and/or DMSO and the emulsifier Uniperol®) EL (wetting agent having emulsifying and dispersing action based on ethoxylated alkylphenols) in a volume ratio of solvent/emulsifier of 99 to 1. The mixture was then made up with water to 100 ml. This stock solution was diluted with the solvent/emulsifier/water mixture described to the concentration of active compounds stated below.
The visually determined percentages of infected leaf areas were converted into efficacies in % of the untreated control:
The efficacy (E) is calculated as follows using Abbot's formula: E=(1−α/β)·100 α corresponds to the fungicidal infection of the treated plants in % and β corresponds to the fungicidal infection of the untreated (control) plants in % An efficacy of 0 means that the infection level of the treated plants corresponds to that of the untreated control plants; an efficacy of 100 means that the treated plants were not infected.
The expected efficacies of mixtures of active compounds were determined using Colby's formula (Colby, S. R. “Calculating synergistic and antagonistic responses of herbicide combinations”, Weeds, 15, 20-22, 1967) and compared with the observed efficacies.
Colby's formula: E=x+y−x·y/100
E expected efficacy, expressed in % of the untreated control, when using the mixture of the active compounds A and B at the concentrations a and b x efficacy, expressed in % of the untreated control, when using the active compound A at the concentration a y efficacy, expressed in % of the untreated control, when using the active compound B at the concentration b Use Example—Activity Against Early Blight of Tomato Caused by Alternaria solani Leaves of potted plants of the cultivar “Goldene Königin” were sprayed to runoff point with an aqueous suspension having the concentration of active compound stated below. […]

Compound	Observed efficacy (%) (Conc. 1 ppm)	Observed efficacy (%) (Conc. 4 ppm)
COc1cc(C)c(C(=O)c2c(OC)ccc(Br)c2C)c(OC)c1OC [metrafenone (II-41), 3′-bromo-2,3,4,6′-tetramethoxy-2′,6-dimethylbenzophenone]	0%	0%
CO/C=C(/C(=O)OC)c1ccccc1CO/N=C(C)/C=C/c1ccc(Cl)cc1 [enestroburin (I), methyl 2-{2-[3-(4-chlorophenyl)-1-methylallylideneaminooxymethyl]phenyl}-3-methoxyacrylate]	–	22%
